Tests used:
[1] = tested on: SARS-CoV-2 Omicron (B11529); assay: Antiviral efficacy test in Vero E6 cells, qRT-PCR viral genome copy, Omicron; assay type: cell-based
[2] = tested on: Beta and Omicron variants of SARS-CoV-2; assay: Antiviral efficacy test in Vero E6 cells, qRT-PCR viral genome copy; assay type: cell-based

For O=C(Nc1ccc([N+](=O)[O-])cc1Cl)c1cc(Cl)ccc1O [niclosamide], the “antiviral efficacy against the Omicron variant compared to the Beta variant” value [1] was “more than four times higher antiviral efficacy” and the “effectiveness in inhibiting viral proliferation compared to remdesivir” value [2] was “over 1.7 times”.

From US20250177419A1, “PHARMACEUTICAL COMPOSITION COMPRISING NICLOSAMIDE OR PHARMACEUTICALLY ACCEPTABLE SALT THEREOF AND PREPARATION METHOD THEREFOR” (WEBIOTREE CO., LTD, priority 2022, published 2025)
